# Experimental data from patent US12507703B2, “Methods, devices and compositions for preserving human milk” (The Trustees of Princeton University, priority 2023, dated 2025).
# Where “and” joins values, the source holds several entries; their conditions need not be identical. Identical values can stand only once.
# Test system: lipase
# Assay: Lipase/lipolysis assay (EnzChek Lipase Substrate, quenched BODIPY-fatty acid conjugate) on stored human milk; note: test concentration or dose not given here
row,Structure (SMILES),Lipase (RFU)
1,CC(C)[C@@H](C)[C@@H](O)[C@H](O)[C@@H](C)[C@H]1CC[C@H]2[C@@H]3COC(=O)[C@H]4C[C@H](O)[C@H](O)C[C@]4(C)[C@H]3CC[C@]12C [Epibrassinolide],830.2794 RFU
2,O=C1C[C@@H](c2ccc(O)c(O)c2)Oc2cc(O[C@@H]3O[C@H](CO)[C@@H](O)[C@H](O)[C@H]3O)cc(O)c21 [Eriodictyol-7-O-glucoside],982.3042 RFU
3,O=C1O[C@H]([C@H](O)CO)C(O)=C1O [Erythorbic acid],1131.679 RFU
4,COC(=O)[C@@]1(C)CC[C@]2(C(=O)O)CC[C@]3(C)C(=CC[C@@H]4[C@@]5(C)C[C@H](O)[C@H](O[C@@H]6OC[C@@H](O[C@@H]7O[C@H](CO)[C@@H](O)[C@H](O)[C@H]7O)[C@H](O)[C@H]6O)[C@@](C)(CO)[C@@H]5CC[C@]43C)[C@@H]2C1 [Esculentoside A],755.0304 RFU
5,COC(=O)[C@]1(C)CC[C@]2(C(=O)O[C@@H]3O[C@H](CO)[C@@H](O)[C@H](O)[C@H]3O)CC[C@]3(C)C(=CC[C@@H]4[C@@]5(C)C[C@H](O)[C@H](O[C@@H]6OC[C@@H](O[C@@H]7O[C@H](CO)[C@@H](O)[C@H](O)[C@H]7O)[C@H](O)[C@H]6O)[C@@](C)(CO)C5CC[C@]43C)[C@H]2C1 (stereo partly shown) [Esculentoside H],1175.483 RFU
6,O=c1ccc2cc(O[C@@H]3O[C@H](CO)[C@@H](O)[C@H](O)[C@H]3O)c(O)cc2o1 [Esculin],1207.652 RFU
7,C=CCc1ccc(OC)cc1 [Estragole],655.6447 RFU and 832.8206 RFU
8,CCOC(=O)c1ccc(O)c(OC)c1 [Ethyl Vanillate],981.4431 RFU
9,CCO[C@@H]1O[C@H](C(=O)O)[C@@H](O)[C@H](O)[C@H]1O [Ethyl glucuronide],1053.076 RFU
10,C[C@]12CC[C@@H](O)C[C@H]1CC[C@@H]1[C@@H]2CC[C@]2(C)C(=O)CC[C@@H]12 [Etiocholanolone],868.806 RFU
11,C=C[C@@H](O)C#CC#C[C@@H](O)/C=C\CCCCCCC [Falcarindiol],827.8455 RFU
12,CCN(Cc1cccc(S(=O)(=O)[O-])c1)c1ccc(C(=C2C=CC(=[N+](CC)Cc3cccc(S(=O)(=O)[O-])c3)C=C2)c2ccc(O)cc2S(=O)(=O)[O-])cc1.[Na+].[Na+] [Fast Green FCF],896.2144 RFU
13,CSCC[C@H](NC=O)C(=O)O [For-Met-OH],819.8295 RFU
14,O=CO [Formic Acid],1027.958 RFU
15,COc1cc2oc(=O)ccc2c(OC)c1O [Fraxinol],772.0122 RFU
16,COc1cc2oc3cc(OC)c(OC)c(CC=C(C)C)c3c(=O)c2c(O)c1CC=C(C)C [Fuscaxanthone C],819.3619 RFU
17,O=P([O-])([O-])O[C@H]1O[C@H](CO)[C@H](O)[C@H](O)[C@H]1O.[K+].[K+] [Galactose 1-phosphate Potassium salt],1112.021 RFU
18,O.O=C(O)c1cc(O)c(O)c(O)c1 [Gallic acid (hydrate)],709.0148 RFU
19,O=Cc1cc(O)c(O)c(O)c1 [Gallic aldehyde],942.9255 RFU

row,Structure (SMILES),Lipase (RFU)
1,CC(C)=CCc1c(O)cc2oc3cc(O)c(O)c(CC=C(C)C)c3c(=O)c2c1O [Gamma-Mangostin],1083.745 RFU
2,C/C(C=O)=C\CC[C@@H](C)[C@H]1CC[C@@]2(C)C3=CC[C@H]4C(C)(C)C(=O)CC[C@]4(C)C3=CC[C@]12C [Ganoderal A],1025.687 RFU
3,C[C@H](CC(=O)C[C@@H](C)[C@H]1C[C@H](O)[C@@]2(C)C3=C(C(=O)C[C@]12C)[C@@]1(C)CCC(=O)C(C)(C)[C@@H]1C[C@@H]3O)C(=O)O [Ganoderic acid A],685.8921 RFU
4,CC(CC(=O)C[C@@H](C)[C@H]1CC(=O)[C@@]2(C)C3=C(C(=O)C[C@]12C)[C@@]1(C)CC[C@H](O)C(C)(C)[C@@H]1C[C@@H]3O)C(=O)O (stereo partly shown) [Ganoderic acid B],879.1619 RFU
5,C/C(=C\CC[C@@H](C)[C@H]1CC[C@@]2(C)C3=C(CC[C@]12C)[C@@]1(C)CCC(=O)C(C)(C)[C@@H]1CC3=O)C(=O)O [Ganoderic acid DM],1077.482 RFU
6,CC(=O)O[C@@H]1C(=O)C2=C(C(=O)C[C@H]3C(C)(C)C(=O)CC[C@]23C)[C@]2(C)C(=O)C[C@H]([C@H](C)CC(=O)CC(C)C(=O)O)[C@@]12C (stereo partly shown) [Ganoderic acid F],791.7198 RFU
7,C[C@H](CC(=O)C[C@](C)(O)[C@@H]1CC(=O)[C@@]2(C)C3=C(C(=O)C[C@]12C)[C@@]1(C)CC[C@H](O)C(C)(C)[C@@H]1C[C@@H]3O)C(=O)O [Ganoderic acid I],969.9191 RFU
8,CC(CC(=O)CC(C)(O)C1CC(=O)C2(C)C3=C(C(=O)CC12C)C1(C)CCC(=O)C(C)(C)C1CC3O)C(=O)O (stereo not shown) [Ganoderic acid N],866.924 RFU
9,C/C(=C\CC[C@@H](C)[C@H]1CC[C@@]2(C)C3=CC[C@H]4C(C)(C)[C@@H](O)CC[C@]4(C)C3=CC[C@]12C)CO [Ganoderol B],970.7443 RFU
10,CC(C)=CCc1c(O)cc2oc3cc(O)c(O)c(CCC(C)(C)O)c3c(=O)c2c1O [Garcinone C],921.9256 RFU
11,OC[C@H]1O[C@@](CO)(O[C@H]2O[C@H](CO[C@@H]3O[C@H](CO)[C@@H](O)[C@H](O)[C@H]3O)[C@@H](O)[C@H](O)[C@H]2O)[C@@H](O)[C@@H]1O [Gentianose],1100.387 RFU
12,CC(C)=C1C/C=C(\C)CC/C=C(\C)CC1=O [Germacrone],974.0245 RFU
13,C[C@@H]1C(=O)O[C@H]2C[C@@]34[C@H]5C[C@@H](C(C)(C)C)[C@]36[C@@H](OC(=O)[C@@H]6O)O[C@@]4(C(=O)O5)[C@]21O [Ginkgolide A],772.6433 RFU
14,CC1C(=O)OC2C(O)C34C5CC(C(C)(C)C)C36C(OC(=O)C6O)OC4(C(=O)O5)C12O (stereo not shown) [Ginkgolide B],1094.796 RFU
15,CC(C)=CCC[C@](C)(O[C@@H]1O[C@H](CO)[C@@H](O)[C@H](O)[C@H]1O)[C@H]1CC[C@]2(C)[C@@H]1[C@H](O)C[C@@H]1[C@@]3(C)CC[C@H](O)C(C)(C)[C@@H]3[C@@H](O)C[C@]12C [Ginsenoside F1],975.1974 RFU
16,CC(C)=CCC[C@](C)(O[C@@H]1O[C@H](CO)[C@@H](O)[C@H](O)[C@H]1O)[C@H]1CC[C@]2(C)[C@@H]1[C@H](O)C[C@@H]1[C@@]3(C)CC[C@H](O[C@@H]4O[C@H](CO)[C@@H](O)[C@H](O)[C@H]4O)C(C)(C)[C@@H]3CC[C@]12C [Ginsenoside F2],926.1742 RFU
17,CC(C)=CCC[C@](C)(O[C@@H]1O[C@H](CO[C@@H]2OC[C@H](O)[C@H](O)[C@H]2O)[C@@H](O)[C@H](O)[C@H]1O)[C@H]1CC[C@]2(C)[C@@H]1[C@H](O)C[C@@H]1[C@@]3(C)CC[C@H](O)C(C)(C)[C@@H]3[C@@H](O)C[C@]12C [Ginsenoside F3],878.0505 RFU
18,CC(C)=CCC[C@](C)(O[C@@H]1O[C@H](CO[C@@H]2O[C@H](CO)[C@@H](O)[C@H](O)[C@H]2O)[C@@H](O)[C@H](O)[C@H]1O)[C@H]1CC[C@]2(C)[C@@H]1[C@H](O)C[C@@H]1[C@@]3(C)CC[C@H](O[C@@H]4O[C@H](CO)[C@@H](O)[C@H](O)[C@H]4O[C@@H]4O[C@H](CO)[C@@H](O)[C@H](O)[C@H]4O)C(C)(C)[C@@H]3CC[C@]12C [Ginsenoside Rb1],830.8489 RFU
